Results on 17 compounds are retold here after ChEMBL document CHEMBL3351714 (Bioorg Med Chem, 2014).

Test [1] addresses T1, D(1A) dopamine receptor (Homo sapiens, UniProt P21728). Description: Displacement of [3H]SCH23390 from D1 receptor (unknown origin) transfected in HEK293T cells after 50 mins by liquid scintillation counting analysis. The format is cell-based, HEK-293T. For orientation: In a radioligand displacement assay an active substance lowers the binding of a labelled ligand.
Test [2] has as its target T1, D(1A) dopamine receptor. The test is described as follows: Displacement of [3H]SCH23390 from D1 receptor (unknown origin) transfected in HEK293T cells at 10 uM after 50 mins by liquid scintillation counting analysis. The format is cell-based. The note with it: HEK-293T.
Test [3] has as its target T2, D(2) dopamine receptor (Homo sapiens, UniProt P14416). Description: Displacement of [3H]Spiperone from D2 receptor (unknown origin) transfected in HEK293T cells at 10 uM after 50 mins by liquid scintillation counting analysis. The format is cell-based. The note with it: HEK-293T.
The target of test [4] is T2, D(2) dopamine receptor. Description: Displacement of [3H]Spiperone from D2 receptor (unknown origin) transfected in HEK293T cells after 50 mins by liquid scintillation counting analysis. Type of test: cell-based, HEK-293T.
The target in test [5] is 5-hydroxytryptamine receptor 2A (Homo sapiens) (UniProt P28223). The test is described as follows: Displacement of [3H]Ketanserin from 5HT2A receptor (unknown origin) transfected in HEK293T cells at 10 uM after 15 mins by liquid scintillation counting analysis. The note with it: HEK-293T. Type of test: cell-based.
5-hydroxytryptamine receptor 2A (Homo sapiens), sequence (P28223 whole entry): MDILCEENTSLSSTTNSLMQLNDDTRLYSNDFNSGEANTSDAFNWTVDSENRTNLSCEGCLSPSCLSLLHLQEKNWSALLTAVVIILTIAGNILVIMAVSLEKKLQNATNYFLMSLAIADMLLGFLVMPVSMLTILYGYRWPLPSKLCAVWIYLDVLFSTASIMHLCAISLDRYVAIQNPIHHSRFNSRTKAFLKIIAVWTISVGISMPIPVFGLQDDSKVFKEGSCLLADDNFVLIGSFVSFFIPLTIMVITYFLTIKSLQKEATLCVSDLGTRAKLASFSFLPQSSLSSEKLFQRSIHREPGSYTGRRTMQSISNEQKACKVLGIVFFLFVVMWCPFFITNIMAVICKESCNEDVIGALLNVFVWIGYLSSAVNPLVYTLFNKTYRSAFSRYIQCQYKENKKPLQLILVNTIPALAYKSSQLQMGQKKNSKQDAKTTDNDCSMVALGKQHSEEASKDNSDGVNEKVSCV
Test [6] concerns the target T3, 5-hydroxytryptamine receptor 1A (Homo sapiens) (UniProt P08908).
T3 sequence (whole entry): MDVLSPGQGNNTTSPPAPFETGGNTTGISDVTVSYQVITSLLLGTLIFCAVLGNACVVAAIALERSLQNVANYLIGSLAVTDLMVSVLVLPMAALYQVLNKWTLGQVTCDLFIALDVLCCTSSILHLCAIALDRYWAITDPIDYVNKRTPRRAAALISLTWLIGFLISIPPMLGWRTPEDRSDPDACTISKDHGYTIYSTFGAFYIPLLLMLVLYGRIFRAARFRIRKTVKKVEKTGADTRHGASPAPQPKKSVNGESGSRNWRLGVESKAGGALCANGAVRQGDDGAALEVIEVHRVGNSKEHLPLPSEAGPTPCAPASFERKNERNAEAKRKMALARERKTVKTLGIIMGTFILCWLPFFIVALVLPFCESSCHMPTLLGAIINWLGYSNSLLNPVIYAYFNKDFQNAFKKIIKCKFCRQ
Description: Displacement of [3H]8-OH-DPAT from 5HT1A receptor (unknown origin) transfected in HEK293T cells at 10 uM after 50 mins by liquid scintillation counting analysis. The format is cell-based. The note with it: HEK-293T.

Test [7] deals with T4, 5-hydroxytryptamine receptor 1A (Homo sapiens, UniProt P08908).
T4 sequence (P08908 whole entry): T3 sequence (whole entry)
The test is described as follows: Displacement of [3H]8-OH-DPAT from 5HT1A receptor (unknown origin) transfected in HEK293T cells after 50 mins by liquid scintillation counting analysis. The format is cell-based, HEK-293T.

Test [8] addresses T2, D(2) dopamine receptor. Description: Antagonist activity at D2 receptor (unknown origin) after 40 mins by [35S]GTP-gammaS binding assay in presence of quinpirole. The format is functional.
For the next test, the target named is D(3) dopamine receptor (Homo sapiens, UniProt P35462). The test is described as follows: Displacement of [3H]Spiperone from D3 receptor (unknown origin) transfected in HEK293T cells after 50 mins by liquid scintillation counting analysis. The format is cell-based, HEK-293T.
D(3) dopamine receptor, sequence (P35462 whole entry): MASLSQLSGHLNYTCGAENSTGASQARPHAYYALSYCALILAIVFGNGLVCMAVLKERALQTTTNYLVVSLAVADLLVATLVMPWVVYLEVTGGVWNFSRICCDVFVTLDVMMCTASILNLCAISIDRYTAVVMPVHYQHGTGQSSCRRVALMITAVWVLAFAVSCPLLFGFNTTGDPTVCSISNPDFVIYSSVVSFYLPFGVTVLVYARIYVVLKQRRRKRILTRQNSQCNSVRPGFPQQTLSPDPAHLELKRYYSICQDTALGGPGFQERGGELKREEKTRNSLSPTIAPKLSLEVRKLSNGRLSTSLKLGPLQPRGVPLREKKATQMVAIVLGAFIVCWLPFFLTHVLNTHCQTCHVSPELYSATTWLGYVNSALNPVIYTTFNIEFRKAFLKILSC
For test [9], the target named is T1, D(1A) dopamine receptor. The test is described as follows: Antagonist activity at D1 receptor (unknown origin) after 40 mins by [35S]GTP-gammaS binding assay in presence of SKF38393. Type of test: functional. For orientation: GTPγS is a poorly hydrolysed GTP analogue; its binding reports G protein activation.
Test [10] has as its target T4, 5-hydroxytryptamine receptor 1A. Description: Agonist activity at 5HT1A receptor (unknown origin) after 20 mins by [35S]GTP-gammaS binding assay. The format is functional.
Test [11] addresses T1, D(1A) dopamine receptor. Description: Agonist activity at D1 receptor (unknown origin) after 40 mins by [35S]GTP-gammaS binding assay. The format is functional.

T2 sequence (P14416 whole entry): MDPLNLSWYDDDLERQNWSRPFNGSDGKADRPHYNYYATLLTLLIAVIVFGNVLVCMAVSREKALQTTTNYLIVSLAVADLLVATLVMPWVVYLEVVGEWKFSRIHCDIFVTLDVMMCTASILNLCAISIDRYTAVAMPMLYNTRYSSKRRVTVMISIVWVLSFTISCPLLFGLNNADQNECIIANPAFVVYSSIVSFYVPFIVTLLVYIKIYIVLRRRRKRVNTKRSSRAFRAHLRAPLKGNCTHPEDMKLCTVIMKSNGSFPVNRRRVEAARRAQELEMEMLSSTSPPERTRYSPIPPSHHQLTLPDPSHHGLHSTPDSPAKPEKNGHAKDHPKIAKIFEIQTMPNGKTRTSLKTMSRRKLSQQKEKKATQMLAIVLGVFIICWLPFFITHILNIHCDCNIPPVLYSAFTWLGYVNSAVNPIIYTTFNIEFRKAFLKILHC
T1 sequence (P21728 whole entry): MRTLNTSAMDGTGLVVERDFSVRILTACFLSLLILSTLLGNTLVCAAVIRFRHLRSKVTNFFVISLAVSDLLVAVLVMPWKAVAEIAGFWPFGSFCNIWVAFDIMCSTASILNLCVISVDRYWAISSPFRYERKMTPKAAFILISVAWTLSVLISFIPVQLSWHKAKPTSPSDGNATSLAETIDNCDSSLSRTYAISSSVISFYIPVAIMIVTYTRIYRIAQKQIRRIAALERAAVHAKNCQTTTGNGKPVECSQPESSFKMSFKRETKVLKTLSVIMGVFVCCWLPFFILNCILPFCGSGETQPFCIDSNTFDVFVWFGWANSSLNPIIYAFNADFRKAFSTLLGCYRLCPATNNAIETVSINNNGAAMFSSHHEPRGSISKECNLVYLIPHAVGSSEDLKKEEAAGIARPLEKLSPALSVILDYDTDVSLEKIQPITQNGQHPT

`CCC(C)Cc1cc2c(s1)C[C@H]1c3cc(O)c(OC)cc3CCN1C2` (some centres undefined): the Ki (commonly the dissociation constant of the complex between target and ligand, obtained from inhibition or displacement) on D(1A) dopamine receptor [1] worked out at 403 nM; on D(2) dopamine receptor [4], 29.1 nM. The inhibition – broadly, the relative decrease from the control value, in per cent – at D(1A) dopamine receptor [2] was 92%; at D(2) dopamine receptor [3], 102%; in test [5], 33.4%; in test [6], 69.4%.

Regarding `COc1cc2c(cc1O)[C@@H]1Cc3sc(CC4CCC4)cc3CN1CC2`, the figures for the inhibition constant (Ki) (on D(1A) dopamine receptor [1]; on D(2) dopamine receptor [4]; in test [7]) were 379 nM, 34.2 nM and 778 nM, respectively. Besides, the inhibition at D(1A) dopamine receptor [2] is 97.1%; at D(2) dopamine receptor [3], 98.7%; in test [5] it was 44.9%; in test [6], 93.7%.

With `COc1cc2c(cc1O)[C@@H]1Cc3sc(CCCCCl)cc3CN1CC2`, the inhibition constant (Ki) at D(1A) dopamine receptor [1] stood at 719 nM; on D(2) dopamine receptor [4] it was 12 nM; in test [7], 655 nM. For the same compound, the inhibition at D(1A) dopamine receptor [2] is 91.1%; at D(2) dopamine receptor [3] it was 103%; in [5], 39.6%; in test [6], 91.9%.

In the case of `COc1cc2c(cc1O)[C@@H]1Cc3sc(CCCl)cc3CN1CC2`, the inhibition constant (Ki) came to 16.4 nM at D(1A) dopamine receptor [1] and 34.4 nM at D(2) dopamine receptor [4]. Besides, the inhibition worked out at 96.7% on D(1A) dopamine receptor [2], 98.4% at D(2) dopamine receptor [3], 34.8% in test [5] and 90.8% in test [6].

For the compound `COc1cc2c(cc1O)[C@@H]1Cc3sc(CCCCl)cc3CN1CC2`, the Ki stood at 77 nM on D(1A) dopamine receptor [1] and 18.4 nM at D(2) dopamine receptor [4]. The inhibition on D(1A) dopamine receptor [2] is 94.3%; at D(2) dopamine receptor [3], 97.2%; in test [5], 62.1%; in test [6], 92.2%.

In the case of `CCc1cc2c(s1)C[C@H]1c3cc(O)c(OC)cc3CCN1C2`, the values for the inhibition constant (Ki) on D(1A) dopamine receptor [1] and at D(2) dopamine receptor [4] were 26.3 nM and 40.8 nM, respectively. Besides, the inhibition on D(1A) dopamine receptor [2] came to 98.2%; on D(2) dopamine receptor [3], 98.5%; in test [5] it was 45.1%; in [6] it was 92.1%.

Take `COc1cc2c(cc1O)[C@@H]1Cc3sccc3CN1CC2`: the Ki on D(1A) dopamine receptor [1] was determined as 87 nM; at D(2) dopamine receptor [4], 88 nM. Also, the inhibition on D(1A) dopamine receptor [2] is 98.1%; on D(2) dopamine receptor [3], 95.8%; in test [5], 82.3%; in test [6] it was 89.7%.

Consider `CCCCc1cc2c(s1)C[C@H]1c3cc(O)c(OC)cc3CCN1C2`, for which the Ki came out at 62.2 nM at D(1A) dopamine receptor [1], 39.9 nM on D(3) dopamine receptor and 17.6 nM at D(2) dopamine receptor [4]. The figures for the concentration for half-maximal inhibition (IC50) at D(2) dopamine receptor [8] and at D(1A) dopamine receptor [9] were 910 nM and 600 nM, respectively. Besides, the inhibition was found to be 98.6% on D(1A) dopamine receptor [2], 99.5% on D(2) dopamine receptor [3], 53.3% in test [5] and 90% in [6]. Also, it took 850 nM to reach a half-maximal effect in test [10] (EC50).

Regarding `COc1cc2c(cc1O)[C@@H]1Cc3sc(CC4CC4)cc3CN1CC2`, the results for the Ki (at D(1A) dopamine receptor [1]; at D(2) dopamine receptor [4]; in [7]) were 66.2 nM, 11.5 nM and 175 nM, respectively. Also, the inhibition on D(1A) dopamine receptor [2] is 96.8%; on D(2) dopamine receptor [3], 99%; in test [5], 39.3%; in test [6], 96.1%.

For the compound `COc1cc2c(cc1O)[C@@H]1Cc3sc(CC(C)Cl)cc3CN1CC2` (some centres undefined), the Ki on D(1A) dopamine receptor [1] worked out at 45.8 nM; on D(2) dopamine receptor [4], 16.5 nM; in test [7] it was 285 nM. The inhibition at D(1A) dopamine receptor [2] turned out to be 91.5%; on D(2) dopamine receptor [3], 105%; in test [5], 52.1%; in [6], 91.6%.

Take `COc1cc2c(cc1O)[C@@H]1Cc3sc(CCCC(C)C)cc3CN1CC2`: the inhibition amounted to 68.1% on D(1A) dopamine receptor [2], 89% on D(2) dopamine receptor [3], 34.9% in test [5] and 36.3% in test [6].

As to `COc1cc2c(cc1O)[C@@H]1Cc3sc(CC(C)(C)C)cc3CN1CC2`, the Ki on D(1A) dopamine receptor [1] is 634 nM; on D(2) dopamine receptor [4], 190 nM. The inhibition stood at 93.8% on D(1A) dopamine receptor [2], 97% at D(2) dopamine receptor [3], 19.3% in test [5] and 79.8% in [6].

For the compound `CCCc1cc2c(s1)C[C@H]1c3cc(O)c(OC)cc3CCN1C2`, the Ki at D(1A) dopamine receptor [1] came to 61.7 nM; at D(2) dopamine receptor [4], 38.6 nM. The inhibition worked out at 98.2% on D(1A) dopamine receptor [2], 96.3% on D(2) dopamine receptor [3], 29.6% in [5] and 85.3% in test [6].

For the compound `CCCCCc1cc2c(s1)C[C@H]1c3cc(O)c(OC)cc3CCN1C2`, the Ki stood at 133 nM on D(1A) dopamine receptor [1] and 46.7 nM on D(2) dopamine receptor [4]. The inhibition was determined as 94.7% at D(1A) dopamine receptor [2], 103% at D(2) dopamine receptor [3], 45.9% in test [5] and 81.7% in [6].

On to `COc1cc2c(cc1O)[C@@H]1Cc3ccc(O)c(OC)c3CN1CC2` [STEPHOLIDINE], for which the Ki at D(1A) dopamine receptor [1] turned out to be 12.3 nM; on D(3) dopamine receptor, 90 nM; on D(2) dopamine receptor [4] it was 105 nM. Besides, the 50% inhibitory concentration (IC50) (as a rule, the concentration that inhibits the measured activity by half) on D(2) dopamine receptor [8] stood at 4380 nM. In addition, at D(1A) dopamine receptor [11], the EC50 (as a rule, the concentration at which the effect is half-maximal) was determined as 23 nM.

Regarding `COc1cc2c(cc1O)[C@@H]1Cc3sc(CCC(C)C)cc3CN1CC2`, the inhibition at D(1A) dopamine receptor [2] was determined as 88.8%; at D(2) dopamine receptor [3], 90.5%; in test [5] it was 50.5%; in test [6], 86.9%. Also, affinity on D(2) dopamine receptor [4] was put at a Ki of 79.5 nM.

Consider `COc1cc2c(cc1O)[C@@H]1Cc3sc(CC(C)C)cc3CN1CC2`, for which the values for the Ki at D(1A) dopamine receptor [1], at D(3) dopamine receptor and on D(2) dopamine receptor [4] were 128 nM, 19.9 nM and 7.54 nM, respectively. The 50% inhibitory concentration (IC50) at D(2) dopamine receptor [8] is 160 nM; at D(1A) dopamine receptor [9], 2010 nM. Besides, the inhibition on D(1A) dopamine receptor [2] amounted to 97.6%; in test [5], 50.3%; in [6] it was 83.7%. Moreover, the EC50 in test [10] amounted to 590 nM.
